The target of one series is T1, CDK6/Cyclin D3 (Homo sapiens, UniProt Q00534).
T1 construct: LJIC-2009G1/2010+PO4
Kind of series: CDK6/Cyclin D3 mobility shift assay. It is filed as biochemical. Conditions: geometric mean, 3.5 mM ATP. On the procedure: The mobility shift assay electrophoretically separates the fluorescently labeled peptides (substrate and phosphorylated product) following the kinase reaction. Both substrate and product are measured, and the ratio of these values is used to generate % conversion of substrate to product by the LabChip EZ Reader.
The reaction was stopped after 95 minutes by the addition of 50 μL of 30 mM EDTA. Ki determinations were made from a plot of the fractional velocity as a function of inhibitor concentration fit to the Morrison equation with the enzyme concentration as a variable.
For CDK4 and CDK6 mobility shift assays, see also Morrison, J. F. (1969) Kinetics of the reversible inhibition of enzyme-catalysed reactions by tight-binding inhibitors, Biochimica et biophysica acta 185, 269-286; and Murphy, D. J. (2004) Determination of accurate KI values for tight-binding enzyme inhibitors: an in silico study of experimental error and assay design, Analytical biochemistry 327, 61-67.

Series [1] is described as follows: Preliminary assessment of metabolism (hepatocytes, human liver microsomes, plasma after oral dosing). The class given is in vitro ADME, rat, rabbit. Particulars: hepatocytes of six species, plasma from monkey, dog and mouse. The procedure: A preliminary assessment of the metabolism of Compound 1 was conducted using mouse, rat, rabbit, dog, monkey and human hepatocytes; human liver microsomes; plasma from monkey, dog and mouse studies following oral dosing. The primary metabolic pathway of Compound 1 was oxidation.

The target in a further series is T2, CDK2/Cyclin E1 (Homo sapiens, UniProt P24941).
T2 construct: Wild-type full length CDK2/wild-type full length Cyclin E1 enzyme complex was produced in-house
The experiment in a line: CDK2/Cyclin E1 mobility shift assay. It is filed as biochemical. Particulars: geometric mean, 150 μM ATP. On the procedure: (CPC Scientific, Sunnyvale, CA). The mobility shift assay electrophoretically separates the fluorescently labeled peptides (substrate and phosphorylated product) following the kinase reaction. Both substrate and product are measured, and the ratio of these values is used to generate % conversion of substrate to product by the LabChip EZ Reader. […] The assay was initiated with the addition of ATP, following a fifteen minutes pre-incubation of enzyme and inhibitor at room temperature in the reaction mixture. The reaction was stopped after 45 minutes at room temperature by the addition of 50 μL of 80 mM EDTA, pH 7.5. The Ki value was determined from the fit of the data to the Morrison tight-binding competitive inhibition equation with the enzyme concentration as a variable.

For series [2], the system named is palbociclib resistant (PalboR) derivatives of MCF7, T47D, and HCC1428. Kind of series: Cell proliferation assay, palbociclib resistant derivatives (range over lines). The class given is cell-based. Particulars: Homo sapiens, read-out: anti-proliferation IC50 values, range over cell lines. On the procedure: (§1) OVCAR3, MCF7, T47D, HCC1428, NCIH2087, NCIH358 or A549cells were seeded 1-3000 cells/well in 96-well plates in growth media containing 10% FBS and cultured overnight at 37° C. 5% CO2. The following day, compounds were serially diluted from a 10 mM top dose for an 11-point 3-fold dilution curve in DMSO. Compound 1 and PF-06873600 were intermediately diluted 1:200 into growth media prior to diluting 1:5 on cells for final concentration 10 μM to 0.1 nM in 0.1% DMSO on cells. Cells were incubated at 37° C. 5% CO2 for 7 days. CYQUANT Direct Cell Proliferation Assay (Molecular Probes, Eugene, OR) was then performed following manufacturer recommendations to determine the relative viable cell numbers on the Perkin Elmer Envision 2104 Multi Label Reader at 508 nm excitation and 527 nm emission wavelengths. IC50 values were calculated by concentration-response curve fitting utilizing a four-parameter analytical method using GraphPad Prism software.
(§2) The effect of Compound 1 on cell proliferation was assessed in multiple ER+ breast cancer cell lines, including parental and palbociclib resistant cell lines.
(§3) Similar results were shown with NCIH2087, NCIH358, and A549 NSCLC cell lines ([…].4).

Series [3] has as its system MCF7, T47D, and HCC1428 parental ER+ breast cancer cell lines. The experiment in a line: Cell proliferation assay, parental ER+ breast cancer cell lines (range over lines). It is filed as cell-based. Particulars: Homo sapiens, read-out: anti-proliferation IC50 values, range over cell lines. On the procedure:
as §1, §2, §3

Another series relates to NCIH2087. The experiment in a line: Cell proliferation assay (CYQUANT, 7 days), NCIH2087. It is filed as cell-based. Conditions: Homo sapiens, NCI-H2087, 168 h, read-out: IC50 ± SEM, proliferation inhibition. The procedure: Cellular CDK activity of Compound 1 and PF-06873600 were assessed in human CCNE1-amplified ovarian cancer cell line model OVCAR3 and human ER+ breast cancer cell line model MCF7 cells. […] OVCAR3 cells were treated overnight with 1 mM hydroxyurea to enrich for G1/S phase cells prior to treatment with inhibitors. Functional effects were measured in a 7-day anti-proliferation assay in one human ovarian cancer (OVCAR3), two human ER+ breast cancer (MCF7 and T47D) and three human non-small cell lung cancer (NCIH2087, NCIH358 and A549) cell line models.
as §1, with “Compound 1 and PF-06873600 were intermediately diluted 1:200 into growth media prior to diluting 1:5 on cells for final concentration 10 μM to 0.1 nM in 0.1% DMSO on cells. Cells were incubated at 37° C. 5% CO2 for 7 days.” left out

The nature of series [4]: Dog i.v. pharmacokinetic study. It is filed as in vivo. Particulars: for Vd: dog, plasma, iv, 0.1 mg/kg, male Beagle dogs, read-out: Dog Vdss. On the procedure:
Dog PK studies were done at Pfizer (Groton, CT); animal care and in vivo procedures were conducted according to guidelines from the Pfizer Institutional Animal Care and Use Committee. Male Beagle dogs were purchased from Marshall BioResources (North Rose, New York) and were typically 1-5 years of age at the time of dosing. Compounds were administered i.v. via the cephalic vein (n=2), dosed as a solution using standard compatible excipients at 0.5 mL/kg for a resulting dose of 0.1 mg/kg. Serial blood samples were collected via the jugular vein at predetermined timepoints after dosing. Animals were monitored for pain or distress throughout the study, with at least daily monitoring during normal husbandry prior to study start. Blood samples were collected into tubes containing K3EDTA and stored on ice until centrifugation to obtain plasma, which was stored frozen at −20° C. or lower. Urine samples were collected at room temperature and stored frozen at −20° C. or lower at the end of each time interval. Plasma samples from the animal PK studies were processed using protein precipitation with acetonitrile: methanol (1:1) containing internal standard verapamil followed by quantitation by LC-MS/MS against a standard curve prepared in blank plasma. Pharmacokinetic parameters were calculated using noncompartmental analysis (Watson v.7.5, Thermo Scientific).

Series [5] in a line: Human blood-to-plasma partition ratio (BPR). Particulars: fresh whole blood, 37° C. Also on record: dose or concentration left out as unconfirmed. It is filed as in vitro ADME. The procedure:
Compound 1 has been evaluated according to methods well known in the art, for its ability to partition between human plasma and blood. Based on the observed partitioning and plasma protein binding, the blood binding was estimated based on human blood unbound fraction (fub)=human plasma unbound fraction (fup)/human blood-to-plasma partition ratio (BPR). […] At the end of the incubations, blood and plasma samples were matrix-matched and analyzed by LC-MS/MS. BPR was calculated by dividing the blood and plasma measure peak areas.

The next series can be described thus: Observed human half-life. The class given is in vivo.

Read-outs that look alike come from different tables or passages of the source.

The record followed here is US20240140947A1, “COMPOUND FOR THE TREATMENT OF CANCER” (priority 2022, published 2024).

T1 sequence (Q00534 whole entry): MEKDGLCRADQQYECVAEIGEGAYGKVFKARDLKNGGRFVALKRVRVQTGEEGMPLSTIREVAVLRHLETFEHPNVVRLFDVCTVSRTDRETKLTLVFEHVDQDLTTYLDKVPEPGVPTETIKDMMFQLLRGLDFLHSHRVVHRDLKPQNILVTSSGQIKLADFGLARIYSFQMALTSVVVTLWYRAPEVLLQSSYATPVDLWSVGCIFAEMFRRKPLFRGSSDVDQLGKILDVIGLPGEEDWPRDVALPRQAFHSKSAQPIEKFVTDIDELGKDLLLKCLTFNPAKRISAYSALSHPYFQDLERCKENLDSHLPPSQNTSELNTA
T1 sequence (P30281 whole entry partner): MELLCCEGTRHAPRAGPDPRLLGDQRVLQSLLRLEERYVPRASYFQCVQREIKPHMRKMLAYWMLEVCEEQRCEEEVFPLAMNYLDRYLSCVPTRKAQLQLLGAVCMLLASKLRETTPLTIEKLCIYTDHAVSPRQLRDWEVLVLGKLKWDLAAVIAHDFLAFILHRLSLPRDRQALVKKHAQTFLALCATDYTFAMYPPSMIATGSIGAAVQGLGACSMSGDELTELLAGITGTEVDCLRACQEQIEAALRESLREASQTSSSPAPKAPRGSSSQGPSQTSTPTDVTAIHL

Turning to `C[C@@]1(O)CCC[C@H]1n1c(=O)c(CC(F)F)cc2cnc(NC3CCN(S(N)(=O)=O)CC3)nc21` [Compound 1, 4-({6-(2,2-difluoroethyl)-8-[(1R,2R)-2-hydroxy-2-methylcyclopentyl]-7-oxo-7,8-dihydropyrido[2,3-d]pyrimidin-2-yl}amino)piperidine-1-sulfonamide], the Ki on CDK6/Cyclin D3 stood at 3.1 nM; at CDK2/Cyclin E1 it was 0.08 nM. The primary metabolic pathway result in series [1] is “oxidation”. Besides, the IC50 in series [2] was 37.3 to 65.7 nM; in series [3] it was 14.3 to 17.6 nM; with NCIH2087 (NCIH2087, 7 days, mean), 40 ± 6.8 nM. In addition, the “Dog Vdss unbound: (Dog Vdss/dog plasma fu)” value in [4] turned out to be 6.7 L/kg. For the same molecule, in series [4], the Vd stood at 1.5 L/kg. In addition, the blood plasma ratio at 1 h in series [5] is 79.

With `C[C@@]1(O)CCC[C@H]1n1c(=O)c(C(F)F)cc2cnc(NC3CCN(S(C)(=O)=O)CC3)nc21` [Compound 2, reference compound], in the series on NCIH2087, the IC50 was 79.8 nM. In series [4], the “Dog Vdss unbound: (Dog Vdss/dog plasma fu)” value was 2.8 L/kg and the Vd was determined as 1.1 L/kg. Also, the “observed human t1/2” value in the series “Observed human half-life” is roughly 3 h. In “Observed human half-life” (in vivo, read-out: observed human t1/2 (converted)), the half-life is 3 h.
